Assay results as given in US8193208B2 (Purdue Pharma L.P., priority 2005, dated 2012).

What was measured:
Assay type in all cases: cell-based
[1] = target: T1, N-type calcium channel (NTCC) (Homo sapiens, UniProt Q00975); experiment: FLIPR calcium mobilization assay for N-type calcium channel (differentiated IMR32 cells); set-up: endogenous in cells; host or cells: IMR32 cells (ATCC), differentiated 8 days with dibutyryl cAMP and bromodeoxyuridine; conditions: calcium mobilization in vitro assay; N-type calcium channel block
Protocol: (§1) Cell maintenance and differentiation. Unless noted otherwise, cell culture reagents were purchased from Mediatech of Herndon, Md. IMR32 cells (American Type Culture Collection, ATCC, Manassas, Va.) were routinely cultured in growth medium consisting of minimum essential medium containing 10% fetal bovine serum (FBS, Hyclone, Logan, Utah), 100 U/mL penicillin, 100 μg/mL streptomycin, 2 mM L-glutamine, 1 mM sodium pyruvate, and 1×MEM non-essential amino acids. 80-90% confluent flasks of cells were differentiated using the following differentiation medium: Growth medium plus 1 mM dibutyryl cyclic AMP (Sigma, St. Louis, Mo.), and 2.5 μM bromodeoxyuridine (Sigma). Cells were differentiated for 8 days by replacing differentiation medium every 2-3 days.
FLIPR Calcium Mobilization Assay for N-type Calcium Channel. One day prior to performing this assay, differentiated IMR32 cells were treated with 1×
CellStripper, and seeded on poly-D-lysine-coated 96-well clear-bottom black plates (Becton Dickinson, Franklin Lakes, N.J.) at 200,000 cells/well. On the day of the assay, the cell plates were washed with IMR32 buffer (127 mM NaCl, 1 mM KCl, 2 mM MgCl2, 700 μM NaH2PO4, 5 mM CaCl2, 5 mM NaHCO3, 8 mM HEPES, 10 mM glucose, pH 7.4), then pre-stimulated with KCl and loaded as follows: 0.05 mL of IMR32 buffer, 0.05 mL of each compound tested diluted in IMR32 buffer containing 20 μM nitrendipine (Sigma), and 0.1 mL KCl dissolved in IMR32 buffer, plus Fluo-4 were added (3 μM final concentration, Molecular Probes, Eugene, Oreg.). Final test compound concentrations ranged from about 846 pM to about 17 μM, final nitrendipine concentration was 5 μM, and final KCl concentration was 90 mM. After 1 hour, the cells were washed twice with 0.05 mL of each compound tested in nitrendipine-containing IMR32 buffer (no KCl or Fluo-4), and then replaced with 0.1 mL of each compound tested in nitrendipine-containing IMR32 buffer. Plates were then transferred to a Fluorimetric Imaging Plate Reader (FLIPR^96, Molecular Devices, Inc., Sunnyvale, Calif.) for assay. The FLIPR measured basal Fluo-4 fluorescence for 315 seconds (i.e., 5 minutes and 15 seconds), then added 0.1 mL KCl agonist dissolved in IMR32 buffer and measured fluorescence for another 45 seconds. Final test compound concentrations on the cells after FLIPR read ranged from about 846 pM to about 17 μM, final nitrendipine concentration was 5 μM, and final KCl concentration was 90 mM. Data were collected over the entire time course and analyzed using Excel, Graph Pad Prism (version 3.02, Graph Pad, San Diego, Calif.), or an in-house non-linear regression analysis software.

[2] = target: T2, L-type calcium channel (LTCC) (Rattus norvegicus, UniProt P22002); experiment: FLIPR calcium mobilization assay for L-type calcium channel (HEK293 cells expressing recombinant rat LTCC subunits, or alternatively differentiated A7r5 cells); conditions: calcium mobilization in vitro assay; L-type calcium channel block
T2 construct: The 6.5 kb cDNA encoding the L-type calcium channel α1c subunit was cloned by PCR amplification from rat heart cDNA; expressed in transfected cells; host or cells: HEK293 (ATCC), stably transfected
Protocol: A7r5 (ATCC) cells were maintained and routinely cultured in A7r5 growth medium consisting of Dulbecco's Modified Eagles Medium containing 10% FBS, 100 U/mL penicillin, 100 μg/mL streptomycin, 4 mM L-glutamine, and 0.15% sodium bicarbonate. 80-90% confluent flasks of cells were differentiated using the following differentiation medium: A7r5 Growth Medium plus 1 mM dibutyryl cyclic AMP (Sigma). Cells were differentiated for 8 days by replacing differentiation medium every 2-3 days.
FLIPR Calcium Mobilization Assay for L-type Calcium Channel. One day prior to performing this assay, HEK293 cells stably expressing recombinant rat L-type calcium channel (LTCC) subunits (α1c, α2δ, and β1) are trypsinized, then seeded on poly-D-lysine-coated 96-well clear-bottom black plates (Becton Dickinson, Franklin Lakes, N.J.) at 75,000 cells/well. On the day of the assay, the plates are washed with LTCC wash buffer (127 mM NaCl, 2 mM MgCl2, 700 μM NaH2PO4, 5 mM CaCl2, 5 mM NaHCO3, 8 mM HEPES, 10 mM glucose, pH 7.4), then loaded with 0.1 mL of LTCC wash buffer containing Fluo-4 (3 μM final concentration, Molecular Probes, Eugene, Oreg.). After 1 hour, the cells are washed with 0.1 mL LTCC wash buffer and resuspended in 0.05 mL LTCC assay buffer (same composition as LTCC wash buffer). Plates are then transferred to a FLIPR^96 for assay. The FLIPR measures basal Fluo-4 fluorescence for 15 seconds, then adds 0.05 mL of each compound tested diluted in LTCC assay buffer at final concentrations ranging from about 846 pM to about 17 μM. Fluo-4 fluorescence is then measured for 5 minutes. 0.1 mL KCl agonist dissolved in LTCC assay buffer is then added to the cells to produce a final concentration of 90 mM KCl, and fluorescence is measured for another 45 seconds. Data are collected over the entire time course and analyzed using Excel, Graph Pad Prism, or an in-house regression analysis software.
Alternative FLIPR Calcium Mobilization Assay for L-type Calcium Channel. Alternatively, the following cell line and procedure was used for the FLIPR calcium mobilization assay for L-type calcium channel. One day prior to performing this assay, differentiated A7r5 cells were trypsinized, then seeded on tissue culture treated 96-well clear-bottom black plates (Becton Dickinson, Franklin Lakes, N.J.) at a dilution of 1:1 from a confluent T150 cm^2 flask. On the day of the assay, the plates were washed with A7r5 wash buffer (127 mM NaCl, 2 mM MgCl2, 700 μM NaH2PO4, 5 mM CaCl2, 5 mM NaHCO3, 8 mM HEPES, 10 mM glucose, pH 7.4), then loaded with 0.1 mL of A7r5 wash buffer containing Fluo-4 (3 μM final concentration, Molecular Probes, Eugene, Oreg.). After 1 hour, the cells were washed with 0.1 mL A7r5 wash buffer and resuspended in 0.05 mL A7r5 assay buffer that was composed of A7r5 wash buffer plus 50 μM valinomycin (Sigma). Plates were then transferred to a FLIPR^96 for assay. The FLIPR measured basal Fluo-4 fluorescence for 15 seconds, then added 0.05 mL of each compound tested diluted in A7r5 assay buffer at final concentrations ranging from about 846 pM to about 17 μM. Fluo-4 fluorescence was then measured for 5 minutes. 0.1 mL KCl agonist dissolved in A7r5 assay buffer is then added to the cells to produce a final concentration of 90 mM KCl, and fluorescence was measured for another 45 seconds. Data were collected over the entire time course and analyzed using Excel, Graph Pad Prism, or an in-house regression analysis software.

[3] = target: T1, N-type calcium channel (NTCC); experiment: FLIPR calcium mobilization assay for N-type calcium channel (differentiated IMR32 cells); set-up: differentiated IMR32 cells were treated with 1×; endogenous in cells; host or cells: IMR32 cells (ATCC), differentiated 8 days with dibutyryl cAMP and bromodeoxyuridine; conditions: calcium mobilization in vitro assay; N-type calcium channel block
Protocol: as §1, with “Cells were differentiated for 8 days by replacing differentiation medium every 2-3 days.” left out
CellStripper, and seeded on poly-D-lysine-coated 96-well clear-bottom black plates (Becton Dickinson, Franklin Lakes, N.J.) at 200,000 cells/well. […] Plates were then transferred to a Fluorimetric Imaging Plate Reader (FLIPR^96, Molecular Devices, Inc., Sunnyvale, Calif.) for assay. The FLIPR measured basal Fluo-4 fluorescence for 315 seconds (i.e., 5 minutes and 15 seconds), then added 0.1 mL KCl agonist dissolved in IMR32 buffer and measured fluorescence for another 45 seconds. Final test compound concentrations on the cells after FLIPR read ranged from about 846 pM to about 17 μM, final nitrendipine concentration was 5 μM, and final KCl concentration was 90 mM. […]

T1 sequence (Q00975 whole entry): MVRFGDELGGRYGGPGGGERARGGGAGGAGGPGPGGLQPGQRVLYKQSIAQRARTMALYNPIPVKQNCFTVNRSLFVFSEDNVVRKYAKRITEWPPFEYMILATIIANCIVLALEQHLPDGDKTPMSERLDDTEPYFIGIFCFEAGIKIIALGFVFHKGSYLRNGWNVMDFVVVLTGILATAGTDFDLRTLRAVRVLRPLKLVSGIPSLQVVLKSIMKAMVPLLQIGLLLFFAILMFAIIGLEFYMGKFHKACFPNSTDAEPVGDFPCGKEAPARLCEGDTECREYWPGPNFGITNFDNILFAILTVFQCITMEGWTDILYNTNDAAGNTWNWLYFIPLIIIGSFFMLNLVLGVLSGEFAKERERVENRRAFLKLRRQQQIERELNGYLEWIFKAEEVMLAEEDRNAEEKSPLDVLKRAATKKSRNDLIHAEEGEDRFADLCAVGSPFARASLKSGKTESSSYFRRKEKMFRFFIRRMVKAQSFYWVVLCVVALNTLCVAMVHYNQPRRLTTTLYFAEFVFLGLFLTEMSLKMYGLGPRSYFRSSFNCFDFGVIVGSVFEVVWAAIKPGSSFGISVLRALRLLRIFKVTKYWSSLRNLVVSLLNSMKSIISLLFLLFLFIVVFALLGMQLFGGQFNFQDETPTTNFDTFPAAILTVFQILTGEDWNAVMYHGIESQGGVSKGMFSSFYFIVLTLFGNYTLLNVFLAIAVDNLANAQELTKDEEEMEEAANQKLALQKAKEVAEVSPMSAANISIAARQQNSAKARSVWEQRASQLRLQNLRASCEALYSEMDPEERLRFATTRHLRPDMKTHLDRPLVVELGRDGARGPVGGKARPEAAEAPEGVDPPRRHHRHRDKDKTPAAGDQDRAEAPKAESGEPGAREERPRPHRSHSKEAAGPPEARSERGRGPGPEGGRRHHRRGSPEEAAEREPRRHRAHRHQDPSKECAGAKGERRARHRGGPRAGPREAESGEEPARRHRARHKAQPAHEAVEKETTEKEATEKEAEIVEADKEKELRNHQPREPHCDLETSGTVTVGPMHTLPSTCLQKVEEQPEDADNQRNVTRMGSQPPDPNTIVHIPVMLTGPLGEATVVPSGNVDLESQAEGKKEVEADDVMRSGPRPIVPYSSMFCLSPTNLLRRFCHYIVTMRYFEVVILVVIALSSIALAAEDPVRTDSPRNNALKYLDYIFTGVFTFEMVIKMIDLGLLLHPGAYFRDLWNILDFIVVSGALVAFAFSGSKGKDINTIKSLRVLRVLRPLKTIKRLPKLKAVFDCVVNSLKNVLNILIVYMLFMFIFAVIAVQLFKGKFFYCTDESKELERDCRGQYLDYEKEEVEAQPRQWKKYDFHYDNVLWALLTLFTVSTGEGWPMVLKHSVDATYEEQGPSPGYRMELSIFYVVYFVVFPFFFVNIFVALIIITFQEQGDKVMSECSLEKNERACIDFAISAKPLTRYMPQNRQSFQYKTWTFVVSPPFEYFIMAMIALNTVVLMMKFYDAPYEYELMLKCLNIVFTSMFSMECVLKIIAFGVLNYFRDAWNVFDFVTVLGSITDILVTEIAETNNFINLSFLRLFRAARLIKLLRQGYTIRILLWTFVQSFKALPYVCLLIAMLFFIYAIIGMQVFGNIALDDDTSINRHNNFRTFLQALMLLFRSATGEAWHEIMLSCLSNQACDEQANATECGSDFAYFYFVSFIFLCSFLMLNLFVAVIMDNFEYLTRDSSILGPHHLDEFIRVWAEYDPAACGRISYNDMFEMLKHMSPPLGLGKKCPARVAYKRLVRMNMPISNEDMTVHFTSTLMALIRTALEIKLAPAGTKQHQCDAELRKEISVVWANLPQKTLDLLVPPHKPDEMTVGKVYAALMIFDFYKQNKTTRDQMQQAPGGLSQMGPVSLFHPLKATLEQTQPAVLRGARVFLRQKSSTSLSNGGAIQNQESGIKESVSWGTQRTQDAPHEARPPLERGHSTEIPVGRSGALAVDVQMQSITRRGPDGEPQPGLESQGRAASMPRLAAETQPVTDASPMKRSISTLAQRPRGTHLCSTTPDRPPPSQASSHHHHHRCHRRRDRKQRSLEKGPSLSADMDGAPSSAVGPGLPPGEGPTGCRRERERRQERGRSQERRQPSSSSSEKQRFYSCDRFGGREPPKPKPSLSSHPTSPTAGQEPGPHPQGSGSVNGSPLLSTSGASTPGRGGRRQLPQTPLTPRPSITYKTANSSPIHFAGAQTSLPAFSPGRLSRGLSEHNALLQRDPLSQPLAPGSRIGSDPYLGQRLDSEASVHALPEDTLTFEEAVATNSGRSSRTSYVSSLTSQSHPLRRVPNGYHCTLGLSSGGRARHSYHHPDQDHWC
T1 sequence (P54289 25-956 partner limits assumed): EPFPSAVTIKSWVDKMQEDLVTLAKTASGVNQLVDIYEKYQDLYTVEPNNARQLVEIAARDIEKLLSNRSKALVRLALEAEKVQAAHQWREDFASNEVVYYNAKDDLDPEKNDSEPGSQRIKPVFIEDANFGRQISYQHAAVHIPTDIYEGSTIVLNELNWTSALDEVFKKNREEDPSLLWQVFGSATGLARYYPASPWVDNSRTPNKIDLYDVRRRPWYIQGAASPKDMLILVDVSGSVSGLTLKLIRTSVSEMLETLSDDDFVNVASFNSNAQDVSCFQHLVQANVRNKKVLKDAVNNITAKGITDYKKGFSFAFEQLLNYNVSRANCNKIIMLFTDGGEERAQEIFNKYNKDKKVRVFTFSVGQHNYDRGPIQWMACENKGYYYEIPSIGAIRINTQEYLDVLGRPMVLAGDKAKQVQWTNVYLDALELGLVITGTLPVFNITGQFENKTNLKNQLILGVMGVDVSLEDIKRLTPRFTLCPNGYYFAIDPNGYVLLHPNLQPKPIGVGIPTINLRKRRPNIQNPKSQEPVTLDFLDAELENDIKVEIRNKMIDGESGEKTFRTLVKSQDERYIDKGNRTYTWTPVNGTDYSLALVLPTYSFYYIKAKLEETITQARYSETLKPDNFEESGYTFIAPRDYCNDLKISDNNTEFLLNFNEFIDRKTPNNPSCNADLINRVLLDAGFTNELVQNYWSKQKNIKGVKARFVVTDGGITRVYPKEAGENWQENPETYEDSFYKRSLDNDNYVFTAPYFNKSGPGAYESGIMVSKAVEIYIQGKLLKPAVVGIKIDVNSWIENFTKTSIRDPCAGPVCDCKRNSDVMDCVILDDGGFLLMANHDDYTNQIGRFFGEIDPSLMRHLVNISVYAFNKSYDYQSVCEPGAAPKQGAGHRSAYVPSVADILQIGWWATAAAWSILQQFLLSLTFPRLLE
T1 sequence (P54289 957-1103 partner limits assumed): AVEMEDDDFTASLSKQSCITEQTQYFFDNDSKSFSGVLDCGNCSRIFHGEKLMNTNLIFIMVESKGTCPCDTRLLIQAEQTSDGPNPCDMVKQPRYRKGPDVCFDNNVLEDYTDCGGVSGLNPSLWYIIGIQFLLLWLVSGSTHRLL
T1 sequence (Q02641 whole entry partner): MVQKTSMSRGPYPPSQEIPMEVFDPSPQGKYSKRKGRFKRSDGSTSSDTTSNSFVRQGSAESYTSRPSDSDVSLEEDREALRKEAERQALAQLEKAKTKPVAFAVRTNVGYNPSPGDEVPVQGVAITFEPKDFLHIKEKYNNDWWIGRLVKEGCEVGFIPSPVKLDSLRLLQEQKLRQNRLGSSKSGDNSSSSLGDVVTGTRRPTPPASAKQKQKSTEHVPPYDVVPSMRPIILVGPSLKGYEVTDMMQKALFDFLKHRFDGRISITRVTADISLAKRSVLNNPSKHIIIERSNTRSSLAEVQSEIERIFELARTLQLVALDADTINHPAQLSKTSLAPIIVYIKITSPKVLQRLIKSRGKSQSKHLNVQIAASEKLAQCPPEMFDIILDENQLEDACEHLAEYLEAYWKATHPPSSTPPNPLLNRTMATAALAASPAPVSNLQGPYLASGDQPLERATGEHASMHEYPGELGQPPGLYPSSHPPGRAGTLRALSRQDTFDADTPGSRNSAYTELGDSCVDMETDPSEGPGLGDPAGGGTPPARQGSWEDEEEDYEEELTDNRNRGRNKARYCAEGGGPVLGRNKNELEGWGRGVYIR

| IC50 [3] | Structure (SMILES) | IC50 [1] | IC50 [2] |
| --- | --- | --- | --- |
| – | O=C1OC2(CCN(CCCC(c3ccc(F)cc3)c3ccc(F)cc3)CC2)c2ccccc21 [Compound 12, 1,3-Dihydro-1′-[4,4-bis(4-fluorophenyl)butyl]-spiro[isobenzofuran-1,4′-piperidine]-3-one] | 0.46 µM | 3.95 µM |
| – | C1=CC2(CCN(CCC=C3c4ccccc4CCc4ccccc43)CC2)c2cccnc21 [1-[2-(10,11-dihydro-5H-dibenzo[a,d]cyclohepten-5-ylmethenyl)ethyl]-spiro[piperidine-4,5′-cyclopenta[b]pyridine]] | 0.55 µM | 3.78 µM |
| – | O=C1OC2(CCN(C(=O)CCC(c3ccc(F)cc3)c3ccc(F)cc3)CC2)c2ccccc21 [Compound 14, 1,3-Dihydro-1′-[4,4-bis(4-fluorophenyl)butanoyl]-spiro[isobenzofuran-1,4′-piperidine]-3-one] | 0.69 µM | 0.31 µM |
| – | COc1ccc(C(=O)N2CCC3(C=Cc4ccccc43)CC2)cc1C(F)(F)F [1-(3-trifluoromethyl-4-methoxybenzoyl)-spiro[piperidine-4,1′-indene]] | 2.29 µM | 5.74 µM |
| – | O=C(CCC(c1ccc(F)cc1)c1ccc(F)cc1)N1CCC2(CCc3ccccc32)CC1 [Compound 35, 1-[4,4-bis(4-fluorophenyl)butanoyl]-spiro[piperidine-4,1′-indane]] | 4.92 µM | > 20 µM |
| 10 to 20 µM | CC(C)c1ccc(CN2CCC3(C=Cc4cccnc43)CC2)cc1 | – | – |
| – | O=C1Nc2ccccc2C12CCN(CCCC(c1ccc(F)cc1)c1ccc(F)cc1)CC2 [Compound 60, 2,3-Dihydro-1′-[4,4-bis(4-fluorophenyl)butyl]-spiro[indole-3,4′-piperidine]-2-one] | 1.05 µM | 3.8 µM |
| – | O=C1c2ccccc2C2(CCN(CCCC(c3ccc(F)cc3)c3ccc(F)cc3)CC2)N1Cc1ccccc1 [Compound 51, 2-Benzyl-2,3-dihydro-1′-[4,4-bis(4-fluorophenyl)butyl]-spiro[isoindole-1,4′-piperidine]-3-one] | 0.55 µM | 6.39 µM |
| – | O=C1OC2(CCN(CCCN(c3ccc(F)cc3)c3ccc(F)cc3)CC2)c2ccccc21 [Compound 68, 1,3-Dihydro-1′-{3-[N,N-bis(4-fluorophenyl)amino]propyl}-spiro[isobenzofuran-1,4′-piperidine]-3-one] | 0.23 µM | > 20 µM |
| – | Fc1ccc(C(CCCN2CCC3(CC2)OCc2ccccc23)c2ccc(F)cc2)cc1 [Compound 42, 1,3-Dihydro-1′-[4,4-bis(4-fluorophenyl)butyl]-spiro[isobenzofuran-1,4′-piperidine]] | 1.2 µM | 2.56 µM |
| – | COc1ccc(CN2CCC3(C=Cc4ccccc43)CC2)cc1 [Compound 37, 1-(4-methoxybenzyl)-spiro[piperidine-4,1′-indene]] | 0.82 µM | 5.44 µM |
| – | O=C1NC2(CCN(CCCC(c3ccc(F)cc3)c3ccc(F)cc3)CC2)c2ccccc21 [2,3-Dihydro-1′-[4,4-bis(4-fluorophenyl)butyl]-spiro[isoindole-1,4′-piperidine]-3-one] | 0.34 µM | > 20 µM |
